Assay [1] is described as follows: antimalarial activity against intraerythrocytic 3D7 parasites – 3D7 strain, red blood cells, SYBR Green, cherry-picked, dose response (AID 652047).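 As to activity change, negative = inhibition: 0% = untreated neutral control wells and -100% = mefloquine positive control wells.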 The conditions noted are these: P. falciparum 3D7 in RBCs, SYBR Green DNA fluorescence.
Assay [2] deals with P. falciparum 3D7 in RBCs, SYBR Green DNA fluorescence. The description is as above.

Active and inactive are the calls of the source.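 The calls were made as follows: active = fitted curve reaches activity change of -35% signal drop at a concentration below twice the top valid tested dose; inactive = the rest, including activity in the opposite direction.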

Regarding `Oc1c(Br)cc(-c2ccccc2)cc1Br`, the activity change, negative = inhibition in assay [1] (at 50 µM (top of the series)) is -1.67% (inactive). The same measure, in the same setting: to `O/N=C/c1ccccc1OCc1ccc(Cl)cc1` belongs -27.3% (inactive).

`COC(=O)COC(=O)c1ccccc1NC(=O)c1ccccc1`: the activity change, negative = inhibition in assay [1] (at 50 µM (top of the series)) is -21% (inactive). On the same count and under the same terms, in the case of `c1ccc(-c2ccc(OCCCn3cncn3)cc2)cc1` it was 6.71% (inactive); in that of `CCCSC(=S)c1c(C)[nH]n(-c2ccccc2)c1=O`, -28.2% (inactive); in that of `O=C1Nc2c(Br)cccc2C1=O`, -4.37% (inactive). On the same count and under the same terms, to `CCCn1c2ccccc2c2cc(C(=O)O)ccc21` belongs 17.1% (inactive). Regarding `Cc1cc(Nc2ccccc2)nn1C(=O)c1ccccc1`, the activity change, negative = inhibition in assay [1] (at 50 µM (top of the series)) was -5.49% (inactive). Same read-out and setting: in the case of `CCc1ccc(S(=O)(=O)N(C(=O)c2ccncc2)c2ccc(OC(=O)c3ccncc3)cc2)cc1` it was -20% (inactive); in that of `CC1=NN(C(N)=S)C(=O)C1N=Nc1cccc(Cl)c1C` (stereo not drawn), -20.7% (inactive). Same read-out and setting: to `O=C(c1ccccc1)c1ccc(Cn2cc(-c3ccccc3)nn2)cc1` belongs -9.93% (inactive); to `CC1CCN(c2ccc3c(c2)S(=O)(=O)c2ccccc2C3=O)CC1`, -3.18% (inactive). Regarding `CCCCn1c(=O)c(C(=O)NCc2ccncc2)c(O)c2ccccc21`, the activity change, negative = inhibition in assay [1] (at 50 µM (top of the series)) is 2.98% (inactive). Take `CC(C)NC(=O)NC(=O)COC(=O)c1ccc([N+](=O)[O-])cc1Cl`: in assay [1] (at 50 µM (top of the series)), the activity change, negative = inhibition is 16.4% (inactive). On the same count and under the same terms, to `CNc1cc(CSC)nc(SCc2ccc(Cl)cc2Cl)n1` belongs 14.7% (inactive); to `Nc1nc2sc3c(c2c(=O)s1)CCCC3`, -14.6% (inactive). Same read-out and setting: to `Cc1cccc(C)c1N1C(=O)C2ON(c3ccccc3)C(c3ccncc3)C2C1=O` (stereo not drawn) belongs -3.22% (inactive). For the compound `CC1Oc2ccccc2C=C1/C=N/Nc1ccc(C(=O)O)cc1` (stereo not drawn), the activity change, negative = inhibition in assay [1] (at 16 µM (top of the series)) was 17% (inactive). As for `O=c1c(CO)cc(CO)cc(CO)c1O`, the activity change, negative = inhibition in assay [1] (at 50 µM (top of the series)) is -103% (inactive). Same read-out and setting: in the case of `O=C(O)c1c(NC(=O)N2CCCC2)sc2c1CCCC2` it was -4.69% (inactive); in that of `CC12CCC(O)CC1=CCC1C2CCC2(C)C3=NN=CC3CC12` (stereo not drawn), -27.5% (inactive).

`O=C(O)CSc1nc(-c2ccc(Cl)cc2)nc2c1oc1ccccc12`: the activity change, negative = inhibition in assay [1] (at 50 µM (top of the series)) was -31.1% (inactive). Same read-out and setting: to `COc1ccc(N(C(=O)c2ccncc2)S(=O)(=O)c2ccccc2)cc1` belongs -18.5% (inactive); to `CCCC1CCC(c2ccc(/C(N)=N/O)cc2)CC1` (stereo not drawn), -10.1% (inactive); to `CCCn1c(=O)c(C(=O)NCc2ccc(OC)c(OC)c2)c(O)c2ccccc21`, -23.6% (inactive). The same measure, in the same setting: in the case of `COc1cccc(CC(=O)Nc2ccc3nc(C)sc3c2)c1` it was -2.47% (inactive); in that of `COc1cccc(C(C)=C2SC(=S)NC2=O)c1`, -18.5% (inactive); in that of `O=C(N/N=C/c1cc(Cl)cc([N+](=O)[O-])c1O)c1ccccc1NS(=O)(=O)c1cccs1`, 3.85% (inactive).

Consider `COC(=O)C1=NN(C(=O)c2cccc(Br)c2)C(O)(c2ccc(Cl)cc2)C1` (stereo not drawn), for which the activity change, negative = inhibition in assay [1] (at 50 µM (top of the series)) was -78.6% (inactive). The same measure, in the same setting: to `Clc1ccc(-c2n[nH]c3c2CCC3)cc1Cl` belongs 19.2% (inactive). The same measure, in the same setting: to `CCn1c(CNc2ccc(Cl)cc2)nnc1SCc1ccccc1` belongs -1.95% (inactive).

Consider `FC(F)(F)c1nc(SCc2ccc(Cl)cc2Cl)n[nH]1`, for which the activity change, negative = inhibition in assay [1] (at 50 µM (top of the series)) is 8.98% (inactive). Same read-out and setting: to `CC1(C)CC(=O)C(N=Nc2ccc3ncsc3c2)=C(O)C1` belongs -15.1% (inactive); to `COc1ccc(N(C(=O)c2ccncc2)S(=O)(=O)c2ccc(F)cc2)cc1`, 38.9% (inactive). Turning to `CCCOc1ccc2ccccc2c1/C=C1\SC(=O)NC1=O`, in assay [1] (at 50 µM (top of the series)), the activity change, negative = inhibition was -22.2% (inactive). Take `CCOc1ccc(N/N=C(/C#N)C(N)=O)cc1`: in assay [1] (at 50 µM (top of the series)), the activity change, negative = inhibition is -29.8% (inactive). Still for that read-out and setting: to `CCC(Oc1ccc(Br)cc1Cl)C(=O)Nc1nnc(C2CC2)s1` (stereo not drawn) belongs -18.5% (inactive); to `CCCCC(CC)c1nnc(NC(=O)c2cccs2)s1` (stereo not drawn), -12.7% (inactive). Still for that read-out and setting: to `Nc1nc(-c2ccc(Oc3ccccc3)cc2)cs1` belongs -0.359% (inactive); to `O=C(c1ccc(Cl)cc1)N1CCN(c2ccc(F)cc2)CC1`, -26.4% (inactive). On the same count and under the same terms, in the case of `COC(OC)c1ccc(C#N)c(SCc2ccccc2)n1` it was -2.94% (inactive); in that of `CC(C)CSc1n[nH]c(=S)s1`, -1.47% (inactive); in that of `FC(F)(F)c1cccc(N2CCc3cn[nH]c32)c1`, -2.82% (inactive). For `O/N=C/c1cc(Br)ccc1OCc1ccccc1F`, in assay [1] (at 16 µM (top of the series)), the activity change, negative = inhibition is 13.1% (inactive). As to `CCCCc1ccc(-n2c(Cc3cccs3)n[nH]c2=S)cc1`, the activity change, negative = inhibition in assay [1] (at 50 µM (top of the series)) is -28% (inactive). In the case of `c1ccc(Cn2cc(-c3cccnc3)cn2)cc1`, in assay [1] (at 50 µM (top of the series)), the activity change, negative = inhibition was -24.2% (inactive). The same measure, in the same setting: in the case of `Cc1cc(NS(=O)(=O)c2ccc(C3CCCCC3)cc2)no1` it was 27.3% (inactive). On the same count and under the same terms, to `CCOC(=O)c1ccc(N2C(=O)CC(N3CCC(O)(c4ccc(Cl)cc4)CC3)C2=O)cc1` (stereo not drawn) belongs 7.67% (inactive).

As for `CCn1c(CNc2ccc(Cl)cc2)nnc1SCc1ccc(Cl)cc1`, the activity change, negative = inhibition in assay [1] (at 50 µM (top of the series)) is -49.2% (inactive). Still for that read-out and setting: in the case of `COc1ccc(N(C)S(=O)(=O)c2ccc(Cl)c(C(=O)NNC(=O)c3ccccc3O)c2)cc1` it was -2.22% (inactive); in that of `COc1ccccc1C1CCN(C(=O)c2ccc(Cl)cc2)CC1`, -15.2% (inactive); in that of `COc1cc2c(c(OC)c1OC)-c1ccc(O)c(=O)cc1[C@@H](NC(C)=O)CC2`, -10.9% (inactive).

`Cc1nn(CCC#N)c(N)c1C1(O)C(=O)Nc2c(Cl)cc(Cl)cc21` (stereo not drawn): the AC35 in assay [2] was 16 µM.

Regarding `Cc1ccc(-n2nnnc2SCC(=O)N2CCc3ccccc3C2)c(C)c1`, the AC35 in assay [2] was 30.7 µM. Still for that read-out and setting: in the case of `CN(C)c1ccc(C=c2c3ccccc3n3c2c2c([n+]3C)CCCC2)cc1` it was 0.15 µM; in that of `Cc1nc(-c2ccccn2)nc(N(C)c2ccccc2)c1Cl`, 3.26 µM.

As to `CCC1=NN(C(=O)c2cccc(Br)c2)C(O)(c2ccc(Br)cc2)C1` (stereo not drawn), the AC35 in assay [2] was 14.7 µM. The same measure, in the same setting: to `CC(C)C(=O)NC(c1cccc([N+](=O)[O-])c1)c1ccc2cccnc2c1O` (stereo not drawn) belongs 1.01 µM. As to `O=C(/C(=N/N=C/c1ccc(O)c(O)c1O)c1ccccc1)c1ccccc1`, the AC35 in assay [2] was 4.96 µM.

In the case of `COc1cnc(-c2ccccn2)nc1N(C)c1ccccc1`, the AC35 in assay [2] was 0.962 µM. Regarding `Cc1ccc(C(=O)C(SC(C)(C)C)n2cncn2)cc1` (stereo not drawn), the activity change, negative = inhibition in assay [1] (at 50 µM (top of the series)) was -13% (inactive). Regarding `CCc1ccc(OCc2n[nH]c(=S)n2Cc2ccccc2)cc1`, the AC35 in assay [2] is 32 µM. Same read-out and setting: to `O/N=C(\c1ccc(Cl)cc1)c1cc2ccccc2o1` belongs 8.56 µM; to `O=S1OC(c2ccccc2)c2cc(Cl)ccc21` (stereo not drawn), 11.3 µM. As to `Cc1nc2ccc(C(=O)NCc3ccc4c(c3)OCO4)cc2s1`, the activity change, negative = inhibition in assay [1] (at 50 µM (top of the series)) was 1.05% (inactive). The same measure, in the same setting: in the case of `O=C1N(c2ccc(Cl)cc2)C(c2cccnc2)N2CCCN12` (stereo not drawn) it was -3.96% (inactive). As to `Cc1nc(SCc2ccc(OCCC(C)C)cc2)n[nH]1`, in assay [2], the AC35 is 16.5 µM.

On to `O=C(c1ccccc1)N1C(=O)C(c2ccccc2)Oc2ccccc21` (stereo not drawn), for which, in assay [1] (at 50 µM (top of the series)), the activity change, negative = inhibition was -36.8% (inactive).

For the origin of these results see PubChem BioAssay AID652047 (Broad Institute, 2013).
